Data from patent US12391701B2, “Chromene-based compounds, methods and uses thereof” (University of Minho, priority 2019, dated 2025).

Tests used:
[1] = tested on: Hs578t cells; assay: Annexin V/PI flow cytometry, Hs578t; assay type: cell-based, human; details: IC50 concentration; 24 h
Excerpt: In an embodiment, to understand the mechanisms leading to cell death, cells were studied for the induction of apoptosis by flow cytometry. […] Externalization of phosphatidylserine occurs during the early apoptotic events. While annexin V binds to phosphatidylserine, PI stains only cells that have lost their membrane integrity, an experimental procedure which allows the discrimination between viable cells, early apoptotic cells, late apoptotic/necrotic cells or necrotic cells.
In an embodiment, MCF-7, Hs578t and 786-O cells were seeded in 6-well culture plates and allowed to adhere over 18-20 hours in a complete DMEM (for MCF-7 and Hs578t cells) and complete RPMI (for 786-O cells) medium to detect apoptosis via flow cytometry analysis. […] Triplicates were performed in each experiment. Floating and adherent cells were collected and combined by centrifugation. Elimination of the supernatant was followed by addition of 1 mL of Binding Buffer. 8 μL FITC annexin V (556419, BD Pharmingen) and 30 μl of PI (50 μg/mL, P1304MP, Invitrogen) were added to the cell pellet. Samples were incubated in the dark for 15 min at room temperature. A further 200 μL of Binding Buffer was added to each sample. PI signal was measured using FACS LSRII flow cytometer (BD Biosciences®) with 488 nm excitation laser. The annexin V signal was collected through a 488 nm blocking filter, a 550 nm long-pass dichroic with a 525 nm band pass. Signals were captured and FACS Diva was used as the acquisition software. The percentage of cells in each phase was analysed using the FlowJo 7.6 (Tree Star®) software. Three independent biological replicates were performed.

[2] = tested on: glioma cell line GAMG; assay: Cell viability MTS assay, GAMG; assay type: cell-based; details: Homo sapiens, 72 hours
Method: In an embodiment, the antiproliferative activity of compounds MC408, MC409, MC421 and MC406 was further determined against glioma cell lines (U87, GAMG and GL18) and acute leukemia cell lines (HL-60, KG-1 and Jurkat). This was done in order to evaluate if the compounds presented an equally interesting anticancer profile in other cancer cell models. Cell viability was determined using the MTS assay, after exposure of the cells to the respective compounds for 72 hours at appropriate concentration ranges to determine the respective IC50 values.
In an embodiment, three human breast cancer cell lines Hs578T, MDA-MB-468 and MCF-7, and a normal breast cell line MCF-10A, were obtained from ATCC (American Type Culture Collection). The cancer cell lines were cultured in Dulbecco's modified Eagle medium, 4.5 g/l glucose (DMEM, Gibco) supplemented with 10% heating inactivated Fetal Bovine Serum (FBS, Gibco) and 1% antibiotic solution (Penicillin-Streptomycin, Gibco). The normal cell line was cultured in Dulbecco's Modified Eagle Medium: Nutrient Mixture F-12 (DMEM/F12, Gibco) supplemented with 5% heating inactivated FBS (Gibco), 1% antibiotic solution (Penicillin-Streptomycin, Gibco), 1% steroid hormone (Hydrocortisone, Sigma-Aldrich), 0.1% peptide hormone (Insulin, Sigma-Aldrich) and 0.01% protein complex (Cholera Toxin, Gibco). Two distinct human acute myeloid leukemia (AML) cell lines, HL-60 (FAB M2) and KG-1 (erythroleukemia-FAB M6), and one human lymphoblastic leukemia (ALL) cell line, Jurkat (T cell type), were also used. These three cell lines were obtained from German Collection of Microorganisms and Cell cultures (DMSZ®, Deutsche Sammlung von Mikroorganismen and Zellkulturen in German). Cells were cultured in RPMI 1640 medium (Biochrom®-Merck Millipore) supplemented with 10% heating inactivated FBS (Biochrom®-Merck Millipore) and 1% antibiotic/antimitotic mixture (Invitrogen®). Three human glioblastoma (GBM) cell line models, two established and commercially available cell lines (U87MG and GAMG, kind gift from Rui M. Reis) and one primary GBM culture (GLIB) were also used. […]

[3] = tested on: Caki-2 cediranib-resistant cells; assay: BrdU proliferation assay, Caki-2 cediranib-resistant; assay type: cell-based; details: 24 and 48 hours; IC50 and ½IC50; drug-resistant

SMILES	induction of cell death by apoptosis (annexin V/PI) [1]	IC50 [2] [µM]	effect on cell proliferation (BrdU) [3]
COc1cccc2c1Oc1nc(-c3ccc(F)cc3)[nH]c1C2C1c2cccc(OC)c2Oc2nc(-c3ccc(F)cc3)[nH]c21 (stereo not shown) [MC406, 2,2′-bis(4-fluorophenyl)-5,5′-dimethoxy-1,1,9,9′-tetrahydro-9,9′-bichromeno[2,3-]imidazoles]	induced cell death by apoptosis	0.22	
COc1cccc2c1Oc1nc(-c3ccccc3)[nH]c1C2 [MC350, 5-methoxy-2-phenyl-3,9-dihydrochromeno[2,3-d]imidazoles]			decrease cell proliferation
COc1cccc2c1Oc1nc(-c3ccc(Br)cc3)[nH]c1C2C1c2cccc(OC)c2Oc2nc(-c3ccc(Br)cc3)[nH]c21 (stereo not shown) [MC421, 2,2′-bis(4-bromophenyl)-5,5′-dimethoxy-1,1,9,9′-tetrahydro-9,9′-bichromeno[2,3-]imidazoles]	inducing cell death by apoptosis (early apoptosis)	0.079	decrease cell proliferation
COc1cccc2c1Oc1nc(-c3ccc(F)cc3)[nH]c1C2 [MC409, 2-(4-fluorophenyl)-5-methoxy-3,9-dihydrochromeno[2,3-d]imidazoles]	induced cell death by apoptosis	0.43	
COc1cccc2c1Oc1nc(-c3ccc(O)cc3)[nH]c1C2 [MC413, 4-(5-methoxy-3,9-dihydrochromeno[2,3-d]imidazol-2-yl)phenol]			decrease cell proliferation
COc1cccc2c1Oc1nc(-c3ccc(Br)cc3)[nH]c1C2 [MC408, 2-(4-bromophenyl)-5-methoxy-3,9-dihydrochromeno[2,3-d]imidazoles]	inducing cell death by apoptosis (early apoptosis)		
